Key:
Experiment in all cases: Temperature shift assay (protein kinases)
Type in all cases: binding
Details in all cases: 10 μM probe; average of three measurements
MAPK1 = target: T1, MAPK1 (Homo sapiens, UniProt P28482)
T1 construct: Recombinant protein domains (bromodomain or kinases) at a concentration of 2 μM
Method: (§1) Temperature shift assays have been described by Fedorov et al.[46]. Recombinant protein domains (bromodomain or kinases) at a concentration of 2 μM in 10 mM HEPES, pH 7.5, and 500 mM NaCl were mixed with 10 μM of chemical probes. Temperature-dependent protein unfolding profiles were measured using a Real-Time PCR Mx3005p machine (Stratagene).

DAPK3 = target: T2, DAPK3 (Homo sapiens, UniProt O43293)
T2 construct: Recombinant protein domains (bromodomain or kinases) at a concentration of 2 μM
T2 sequence (O43293 13-275 limits assumed, species assumed): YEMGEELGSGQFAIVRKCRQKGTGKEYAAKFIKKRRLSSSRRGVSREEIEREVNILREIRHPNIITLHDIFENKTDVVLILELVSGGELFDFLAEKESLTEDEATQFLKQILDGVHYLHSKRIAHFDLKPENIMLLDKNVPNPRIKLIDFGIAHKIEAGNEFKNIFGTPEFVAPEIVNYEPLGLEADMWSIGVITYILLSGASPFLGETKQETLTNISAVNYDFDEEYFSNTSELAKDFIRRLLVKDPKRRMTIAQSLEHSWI
Method: as §1

CAMK1G = target: T3, CAMK1G (Homo sapiens, UniProt Q96NX5)
T3 construct: Recombinant protein domains (bromodomain or kinases) at a concentration of 2 μM
T3 sequence (Q96NX5 23-277 limits assumed, species assumed): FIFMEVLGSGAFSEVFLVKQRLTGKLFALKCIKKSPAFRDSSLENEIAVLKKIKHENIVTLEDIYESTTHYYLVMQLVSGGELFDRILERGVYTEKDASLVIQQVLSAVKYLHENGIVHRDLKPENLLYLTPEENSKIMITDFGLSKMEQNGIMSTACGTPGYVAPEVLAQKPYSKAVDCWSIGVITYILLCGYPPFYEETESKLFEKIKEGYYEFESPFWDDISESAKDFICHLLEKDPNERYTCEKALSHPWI
Method: as §1

PIM1 = target: T4, PIM1 (Homo sapiens, UniProt P11309)
T4 construct: Recombinant protein domains (bromodomain or kinases) at a concentration of 2 μM
T4 sequence (P11309 38-290 limits assumed, species assumed): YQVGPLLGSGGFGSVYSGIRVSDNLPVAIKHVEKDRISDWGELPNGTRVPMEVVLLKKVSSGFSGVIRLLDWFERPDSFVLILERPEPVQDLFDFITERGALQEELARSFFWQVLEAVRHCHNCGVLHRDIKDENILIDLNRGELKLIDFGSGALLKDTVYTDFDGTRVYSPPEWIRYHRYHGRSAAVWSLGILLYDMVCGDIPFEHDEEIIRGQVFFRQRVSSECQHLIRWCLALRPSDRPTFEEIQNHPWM
Method: as §1

AAK1 = target: T5, AAK1 (Homo sapiens, UniProt Q2M2I8)
T5 construct: Recombinant protein domains (bromodomain or kinases) at a concentration of 2 μM
T5 sequence (Q2M2I8 46-315 limits assumed, species assumed): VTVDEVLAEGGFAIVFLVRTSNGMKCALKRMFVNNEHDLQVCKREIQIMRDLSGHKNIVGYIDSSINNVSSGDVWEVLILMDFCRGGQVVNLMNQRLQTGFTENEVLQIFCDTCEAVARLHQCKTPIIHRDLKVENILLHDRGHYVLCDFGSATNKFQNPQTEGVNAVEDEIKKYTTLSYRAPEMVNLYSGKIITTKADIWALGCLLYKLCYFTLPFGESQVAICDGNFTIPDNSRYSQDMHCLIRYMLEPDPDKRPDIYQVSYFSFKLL
Method: as §1

CAMKK2 = target: T6, CAMKK2 (Homo sapiens, UniProt Q96RR4)
T6 construct: Recombinant protein domains (bromodomain or kinases) at a concentration of 2 μM
T6 sequence (Q96RR4 165-446 limits assumed, species assumed): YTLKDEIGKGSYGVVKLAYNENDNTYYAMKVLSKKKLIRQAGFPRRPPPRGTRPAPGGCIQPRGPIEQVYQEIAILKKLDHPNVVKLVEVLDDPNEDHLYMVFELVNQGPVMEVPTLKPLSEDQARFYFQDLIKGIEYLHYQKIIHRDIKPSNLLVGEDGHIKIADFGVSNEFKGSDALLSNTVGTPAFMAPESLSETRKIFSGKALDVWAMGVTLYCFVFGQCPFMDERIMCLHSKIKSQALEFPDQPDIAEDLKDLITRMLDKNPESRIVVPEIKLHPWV
Method: as §1

MERTK = target: T7, MERTK (Homo sapiens, UniProt Q12866)
T7 construct: Recombinant protein domains (bromodomain or kinases) at a concentration of 2 μM
T7 sequence (Q12866 587-858 limits assumed): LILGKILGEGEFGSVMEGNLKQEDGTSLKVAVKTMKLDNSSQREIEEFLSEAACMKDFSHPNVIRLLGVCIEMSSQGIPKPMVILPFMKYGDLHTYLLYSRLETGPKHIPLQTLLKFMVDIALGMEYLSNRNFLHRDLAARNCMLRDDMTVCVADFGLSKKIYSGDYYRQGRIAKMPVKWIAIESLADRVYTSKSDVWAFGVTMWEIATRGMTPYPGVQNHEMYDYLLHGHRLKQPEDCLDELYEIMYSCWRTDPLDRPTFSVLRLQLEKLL
Method: as §1

CK2A1 = target: T8, CK2A1 (Homo sapiens, UniProt P68400)
T8 construct: Recombinant protein domains (bromodomain or kinases) at a concentration of 2 μM
T8 sequence (P68400 39-324 limits assumed): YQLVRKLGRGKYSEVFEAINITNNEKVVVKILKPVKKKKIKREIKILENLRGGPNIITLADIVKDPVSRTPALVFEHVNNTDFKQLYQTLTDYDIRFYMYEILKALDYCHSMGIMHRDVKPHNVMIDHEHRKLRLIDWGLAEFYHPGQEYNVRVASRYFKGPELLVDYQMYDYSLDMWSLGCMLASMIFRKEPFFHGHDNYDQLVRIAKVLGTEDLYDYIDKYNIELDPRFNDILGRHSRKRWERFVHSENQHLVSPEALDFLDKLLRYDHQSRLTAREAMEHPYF
Method: as §1

BMX = target: T9, BMX (Homo sapiens, UniProt P51813)
T9 construct: Recombinant protein domains (bromodomain or kinases) at a concentration of 2 μM
T9 sequence (P51813 417-675 limits assumed, species assumed): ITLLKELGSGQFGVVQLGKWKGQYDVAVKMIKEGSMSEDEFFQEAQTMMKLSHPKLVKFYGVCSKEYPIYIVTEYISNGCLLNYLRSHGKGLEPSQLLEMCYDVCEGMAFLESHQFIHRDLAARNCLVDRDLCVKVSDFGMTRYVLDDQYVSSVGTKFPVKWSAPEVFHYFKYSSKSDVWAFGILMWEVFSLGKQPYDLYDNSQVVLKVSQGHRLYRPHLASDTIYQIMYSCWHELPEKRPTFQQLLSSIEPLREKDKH
Method: as §1

EPHA2 = target: T10, EPHA2 (Homo sapiens, UniProt P29317)
T10 construct: Recombinant protein domains (bromodomain or kinases) at a concentration of 2 μM
T10 sequence (P29317 613-875 limits assumed): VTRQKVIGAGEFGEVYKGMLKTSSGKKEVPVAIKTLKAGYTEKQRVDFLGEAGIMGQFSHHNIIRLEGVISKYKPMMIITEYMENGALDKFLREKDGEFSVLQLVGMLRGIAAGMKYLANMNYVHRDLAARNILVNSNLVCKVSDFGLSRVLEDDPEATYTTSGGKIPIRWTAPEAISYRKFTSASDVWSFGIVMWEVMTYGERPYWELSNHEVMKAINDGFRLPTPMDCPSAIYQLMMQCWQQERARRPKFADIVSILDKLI
Method: as §1

CASK = target: T11, CASK (Homo sapiens, UniProt O14936)
T11 construct: Recombinant protein domains (bromodomain or kinases) at a concentration of 2 μM
T11 sequence (O14936 12-276 limits assumed): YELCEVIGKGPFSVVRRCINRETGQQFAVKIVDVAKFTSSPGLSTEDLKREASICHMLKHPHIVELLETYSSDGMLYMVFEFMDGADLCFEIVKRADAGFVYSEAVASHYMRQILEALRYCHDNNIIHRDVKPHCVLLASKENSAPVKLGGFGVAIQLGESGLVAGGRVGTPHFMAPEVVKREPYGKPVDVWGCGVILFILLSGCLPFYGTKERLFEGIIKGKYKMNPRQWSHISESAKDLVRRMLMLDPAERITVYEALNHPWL
Method: as §1

MAPK8 = target: T12, MAPK8 (Homo sapiens, UniProt P45983)
T12 construct: Recombinant protein domains (bromodomain or kinases) at a concentration of 2 μM
T12 sequence (P45983 26-321 limits assumed, species assumed): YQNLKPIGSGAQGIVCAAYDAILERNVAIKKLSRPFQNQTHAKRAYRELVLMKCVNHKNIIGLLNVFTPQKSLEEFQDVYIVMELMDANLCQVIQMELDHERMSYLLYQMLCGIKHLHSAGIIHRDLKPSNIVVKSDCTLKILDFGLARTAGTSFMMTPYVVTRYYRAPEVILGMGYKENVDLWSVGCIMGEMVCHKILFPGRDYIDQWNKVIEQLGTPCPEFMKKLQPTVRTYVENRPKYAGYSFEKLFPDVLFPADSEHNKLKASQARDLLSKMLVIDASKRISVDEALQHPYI
Method: as §1

AURKB = target: T13, AURKB (Homo sapiens, UniProt Q96GD4)
T13 construct: Recombinant protein domains (bromodomain or kinases) at a concentration of 2 μM
T13 sequence (Q96GD4 77-327 limits assumed, species assumed): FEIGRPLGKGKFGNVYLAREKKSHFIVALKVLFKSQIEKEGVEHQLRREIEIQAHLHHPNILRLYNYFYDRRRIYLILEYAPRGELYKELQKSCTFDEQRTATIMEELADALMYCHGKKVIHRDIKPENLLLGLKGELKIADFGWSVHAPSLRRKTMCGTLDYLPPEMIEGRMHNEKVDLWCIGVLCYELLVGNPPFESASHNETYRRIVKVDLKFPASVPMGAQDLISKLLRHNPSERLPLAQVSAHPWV
Method: as §1

CSNK1D = target: T14, CSNK1D (Homo sapiens, UniProt P48730)
T14 construct: Recombinant protein domains (bromodomain or kinases) at a concentration of 2 μM
T14 sequence (P48730 9-277 limits assumed): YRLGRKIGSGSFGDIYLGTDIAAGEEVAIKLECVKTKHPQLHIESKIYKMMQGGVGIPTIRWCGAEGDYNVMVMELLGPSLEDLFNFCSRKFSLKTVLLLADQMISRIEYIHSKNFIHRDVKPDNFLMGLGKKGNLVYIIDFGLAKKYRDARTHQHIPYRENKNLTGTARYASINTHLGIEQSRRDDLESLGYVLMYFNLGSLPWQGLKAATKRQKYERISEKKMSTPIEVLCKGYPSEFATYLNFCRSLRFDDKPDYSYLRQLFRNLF
Method: as §1

ABL1 = target: T15, ABL1 (Homo sapiens, UniProt P00519)
T15 construct: Recombinant protein domains (bromodomain or kinases) at a concentration of 2 μM
T15 sequence (P00519 242-493 limits assumed): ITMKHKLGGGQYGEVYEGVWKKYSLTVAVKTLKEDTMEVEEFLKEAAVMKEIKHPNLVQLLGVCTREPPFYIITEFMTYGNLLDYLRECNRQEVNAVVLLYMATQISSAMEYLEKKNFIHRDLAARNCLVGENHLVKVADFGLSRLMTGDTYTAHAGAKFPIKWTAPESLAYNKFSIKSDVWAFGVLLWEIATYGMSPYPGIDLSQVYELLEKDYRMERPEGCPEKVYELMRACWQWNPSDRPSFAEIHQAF
Method: as §1

FES = target: T16, FES (Homo sapiens, UniProt P07332)
T16 construct: Recombinant protein domains (bromodomain or kinases) at a concentration of 2 μM
T16 sequence (P07332 561-822 limits assumed, species assumed): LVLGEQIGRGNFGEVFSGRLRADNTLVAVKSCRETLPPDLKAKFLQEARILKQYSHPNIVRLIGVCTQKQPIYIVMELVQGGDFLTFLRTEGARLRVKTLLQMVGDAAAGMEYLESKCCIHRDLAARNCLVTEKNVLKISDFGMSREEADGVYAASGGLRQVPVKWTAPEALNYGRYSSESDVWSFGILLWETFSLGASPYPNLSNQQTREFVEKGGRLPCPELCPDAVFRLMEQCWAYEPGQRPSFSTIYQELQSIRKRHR
Method: as §1

GSG2 = target: T17, GSG2 (Homo sapiens, UniProt Q8TF76)
T17 construct: Recombinant protein domains (bromodomain or kinases) at a concentration of 2 μM
T17 sequence (Q8TF76 484-798 limits assumed): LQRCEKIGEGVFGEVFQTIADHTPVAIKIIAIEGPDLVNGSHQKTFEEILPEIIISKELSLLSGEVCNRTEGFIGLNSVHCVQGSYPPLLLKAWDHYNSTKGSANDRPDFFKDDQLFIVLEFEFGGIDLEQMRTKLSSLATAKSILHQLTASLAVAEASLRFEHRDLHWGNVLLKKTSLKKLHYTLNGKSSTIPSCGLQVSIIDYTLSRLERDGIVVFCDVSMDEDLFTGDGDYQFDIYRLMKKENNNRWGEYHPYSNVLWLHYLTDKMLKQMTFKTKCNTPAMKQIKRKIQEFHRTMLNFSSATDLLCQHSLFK
Method: as §1

T1 sequence (P28482 25-313 limits assumed, species assumed): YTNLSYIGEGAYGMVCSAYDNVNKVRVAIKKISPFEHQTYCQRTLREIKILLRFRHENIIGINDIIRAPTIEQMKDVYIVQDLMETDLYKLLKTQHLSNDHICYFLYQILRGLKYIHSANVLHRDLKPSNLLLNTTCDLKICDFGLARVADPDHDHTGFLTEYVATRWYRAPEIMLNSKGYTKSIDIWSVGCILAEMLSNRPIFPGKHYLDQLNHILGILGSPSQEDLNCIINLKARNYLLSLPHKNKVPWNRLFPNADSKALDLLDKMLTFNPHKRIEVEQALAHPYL

Row | SMILES | Temperature shift (MAPK1) [Kelvin] | Temperature shift (DAPK3) [Kelvin] | Temperature shift (CAMK1G) [Kelvin] | Temperature shift (PIM1) [Kelvin] | Temperature shift (AAK1) [Kelvin] | Temperature shift (CAMKK2) [Kelvin] | Temperature shift (MERTK) [Kelvin] | Temperature shift (CK2A1) [Kelvin] | Temperature shift (BMX) [Kelvin] | Temperature shift (EPHA2) [Kelvin] | Temperature shift (CASK) [Kelvin] | Temperature shift (MAPK8) [Kelvin] | Temperature shift (AURKB) [Kelvin] | Temperature shift (CSNK1D) [Kelvin] | Temperature shift (ABL1) [Kelvin] | Temperature shift (FES) [Kelvin] | Temperature shift (GSG2) [Kelvin]
1 | Cc1cc2c(cc1N1C(=O)c3cccc4c(CCCO)ccc(c34)C1=O)n(C)c(=O)n2C [BAY-299] | 0.0 | -0.2 | -0.6 | -0.2 | -0.4 | -0.4 | -0.2 | -1.4 | 0.3 | 2.0 | -0.1 | -0.4 | 0.2 | 1.2 | 0.0 | 0.0 | 0.1
2 | CCC(=O)N1CCOc2c(cc(-c3ccc(OC)c(OC)c3)cc2OCC2CCCN(C)C2)C1 (stereo not drawn) [I-CBP112] | 0.2 | 0.0 | -0.2 | -0.1 | -0.7 | -0.4 | -0.2 | -1.9 | -0.1 | 1.1 | 0.0 | 0.3 | 0.3 | 0.5 | 0.0 | -0.1 | 0.1
3 | Cc1nnc2c3ccccc3c(N[C@@H](C)[C@H](c3ccccc3)N(C)C)nn12 [L-Moses] | 0.1 | 0.2 | -0.3 | 2.3 | -1.6 | -0.1 | 0.0 | -0.1 | -0.1 | 1.1 | -0.1 | 0.6 | 0.4 | 0.6 | 0.0 | -0.2 | 0.1
